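These data come from cells grown in 96-well plates and exposed to compound for 48 hours at five concentrations. GI50 = concentration required for 50% inhibition of growth.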 The source made the active and inactive calls. No stated cut-off is given here; in the data, active = GI50 up to about 1.1 µM and inactive = higher.
Tests used:
Experiment in all cases: growth of human tumour cells (NCI), 48 h
[1] = test system: SW-620
[2] = test system: MOLT-4
[3] = test system: TK-10
[4] = test system: SK-MEL-28
[5] = test system: MDA-MB-231
[6] = test system: K562
[7] = test system: HCT-15
[8] = test system: NCI-H226
[9] = test system: LOX IMVI
[10] = test system: UACC-62
[11] = test system: SK-OV-3
[12] = test system: SF-539
[13] = test system: HOP-62
[14] = test system: BT-549
[15] = test system: NCI-H460
[16] = test system: CAKI-1
[17] = test system: UACC-257
[18] = test system: HCT-116
[19] = test system: 786-0
[20] = test system: A549
[21] = test system: SR
[22] = test system: Hs-578T
[23] = test system: OVCAR-3
[24] = test system: NCI-H23
[25] = test system: SNB-75
[26] = test system: NCI-H522
[27] = test system: HOP-92
[28] = test system: HL-60
[29] = test system: HCC 2998
[30] = test system: SF-295
[31] = test system: SK-MEL-5
[32] = test system: IGROV-1
[33] = test system: ACHN
[34] = test system: A498
[35] = test system: SN12C
[36] = test system: MDA-MB-435
[37] = test system: OVCAR-8
[38] = test system: NCI/ADR-RES
[39] = test system: UO-31
[40] = test system: KM12
[41] = test system: T47D
[42] = test system: U-251
[43] = test system: COLO 205
[44] = test system: Malme-3M
[45] = test system: MDA-N
[46] = test system: SF-268
[47] = test system: EKVX
[48] = test system: RXF 393
[49] = test system: HT-29
[50] = test system: OVCAR-4
[51] = test system: MCF7
[52] = test system: PC-3
[53] = test system: DU-145
[54] = test system: CCRF-CEM
[55] = test system: RPMI-8226
[56] = test system: M14
[57] = test system: SNB-19
[58] = test system: SK-MEL-2
[59] = test system: OVCAR-5

COC(=O)C1(Cc2ccc3c(c2)CCC3)Cc2ccc3c(c2C1O)CCC3 (configuration not stated)
GI50 [1]: 14.5 µM (inactive)
GI50 [2]: > 100 µM (inactive)
GI50 [3]: 17.3 µM (inactive)
GI50 [4]: 14.7 µM (inactive)
GI50 [5]: 12.7 µM (inactive)
GI50 [6]: > 100 µM (inactive)
GI50 [7]: > 10 µM
GI50 [8]: 18.5 µM (inactive)
GI50 [9]: 12.6 µM (inactive)
GI50 [10]: 15.5 µM (inactive)
GI50 [11]: 18.5 µM (inactive)
GI50 [12]: 21.2 µM (inactive)
GI50 [13]: 14.7 µM (inactive)
GI50 [14]: 14.9 µM (inactive)
GI50 [15]: 21 µM (inactive)
GI50 [16]: 14.2 µM (inactive)
GI50 [17]: 10.7 µM (inactive)
GI50 [18]: 11.8 µM (inactive)
GI50 [19]: 14.7 µM (inactive)
GI50 [20]: 14.1 µM (inactive)
GI50 [21]: 12 µM (inactive)
GI50 [22]: 17.3 µM (inactive)
GI50 [23]: 13.8 µM (inactive)
GI50 [24]: > 10 µM (inactive)
GI50 [25]: 32.2 µM (inactive)
GI50 [26]: 10.9 µM (inactive)
GI50 [27]: 10.1 µM (inactive)
GI50 [28]: 23.1 µM (inactive)
GI50 [29]: 17.1 µM (inactive)
GI50 [30]: 17.5 µM (inactive)
GI50 [31]: 10.2 µM (inactive)
GI50 [32]: > 10 µM (inactive)
GI50 [33]: 13 µM (inactive)
GI50 [34]: 11.7 µM (inactive)
GI50 [35]: 15 µM (inactive)
GI50 [36]: 13 µM (inactive)
GI50 [37]: 17.3 µM (inactive)
GI50 [38]: 12.6 µM (inactive)
GI50 [39]: 10.7 µM (inactive)
GI50 [40]: 14.8 µM (inactive)
GI50 [41]: 8.81 µM (inactive)
GI50 [42]: 15.8 µM (inactive)
GI50 [43]: 12.9 µM (inactive)
GI50 [44]: 12.2 µM (inactive)
GI50 [45]: 15.4 µM (inactive)
GI50 [46]: 21 µM (inactive)
GI50 [47]: 8.89 µM (inactive)
GI50 [48]: 14.5 µM (inactive)
GI50 [49]: 15.2 µM (inactive)
GI50 [50]: 5.79 µM (inactive)
GI50 [51]: 12.9 µM (inactive)
GI50 [52]: 15.1 µM (inactive)
GI50 [53]: 11.8 µM (inactive)
GI50 [54]: > 100 µM (inactive)
GI50 [55]: 17 µM (inactive)

O=[N+]([O-])c1ccc(/C=C\c2ccc3c(c2)OCO3)c([N+](=O)[O-])c1
GI50 [1]: 17.1 µM (inactive)
GI50 [2]: 17.5 µM (inactive)
GI50 [3]: 17.3 µM (inactive)
GI50 [4]: 17.1 µM (inactive)
GI50 [5]: 17.2 µM (inactive)
GI50 [6]: 21.3 µM (inactive)
GI50 [7]: 14.6 µM
GI50 [9]: 13.4 µM (inactive)
GI50 [10]: 18.7 µM (inactive)
GI50 [11]: 18.7 µM (inactive)
GI50 [12]: 20 µM (inactive)
GI50 [13]: 25.1 µM (inactive)
GI50 [14]: 16.4 µM (inactive)
GI50 [15]: 19.5 µM (inactive)
GI50 [16]: 25 µM (inactive)
GI50 [17]: 17.3 µM (inactive)
GI50 [56]: 15.3 µM (inactive)
GI50 [18]: 5.53 µM (inactive)
GI50 [19]: 16.9 µM (inactive)
GI50 [20]: 20.1 µM (inactive)
GI50 [21]: 8 µM (inactive)
GI50 [22]: 16.8 µM (inactive)
GI50 [23]: 18.2 µM (inactive)
GI50 [57]: 17.3 µM (inactive)
GI50 [24]: 21.7 µM (inactive)
GI50 [25]: 17.7 µM (inactive)
GI50 [26]: 12.7 µM (inactive)
GI50 [27]: 21.2 µM (inactive)
GI50 [28]: 17.4 µM (inactive)
GI50 [29]: 14.5 µM (inactive)
GI50 [30]: 23 µM (inactive)
GI50 [58]: 18.3 µM (inactive)
GI50 [31]: 19 µM (inactive)
GI50 [32]: 12.2 µM (inactive)
GI50 [33]: 16.6 µM (inactive)
GI50 [34]: 19 µM (inactive)
GI50 [35]: 17.5 µM (inactive)
GI50 [36]: 8.43 µM (inactive)
GI50 [37]: 19 µM (inactive)
GI50 [38]: 29.2 µM (inactive)
GI50 [39]: 19.9 µM (inactive)
GI50 [40]: 15.3 µM (inactive)
GI50 [41]: 44.1 µM (inactive)
GI50 [42]: 14.2 µM (inactive)
GI50 [43]: 18.4 µM (inactive)
GI50 [44]: 19.7 µM (inactive)
GI50 [45]: 5.52 µM (inactive)
GI50 [59]: 18.7 µM (inactive)
GI50 [46]: 23 µM (inactive)
GI50 [47]: 13 µM (inactive)
GI50 [48]: 0.0316 µM (active)
GI50 [49]: 19.9 µM (inactive)
GI50 [51]: 1.86 µM (inactive)
GI50 [52]: 24.8 µM (inactive)
GI50 [53]: 18.3 µM (inactive)
GI50 [54]: 18.2 µM (inactive)
GI50 [55]: 4.39 µM (inactive)

Reference: ChEMBL document CHEMBL1201862, “PubChem BioAssay data set” (2004)
